In ChEMBL document CHEMBL1201862, “PubChem BioAssay data set” (2004):
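Grown in 96-well plates, cells were treated for 48 hours with each compound at five concentrations. Insufficient inhibition: endpoint recorded as highest concentration tested. GI50 is the concentration that inhibits growth by half.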 Active and inactive are the calls of the source. No stated cut-off is given here; in the data, active = GI50 up to about 1.1 µM and inactive = higher.

Columns and labels:
Assay in all cases: NCI-60 cell line screen, 48 h
HT-29 = system: HT-29
SF-268 = system: SF-268
KM12 = system: KM12
MDA-MB-435 = system: MDA-MB-435
SK-MEL-28 = system: SK-MEL-28
A549 = system: A549
A498 = system: A498
UACC-257 = system: UACC-257
SR = system: SR
K562 = system: K562
HOP-92 = system: HOP-92
OVCAR-5 = system: OVCAR-5
Hs-578T = system: Hs-578T
MDA-MB-231 = system: MDA-MB-231
HL-60 = system: HL-60
HCT-15 = system: HCT-15
OVCAR-3 = system: OVCAR-3
EKVX = system: EKVX
MOLT-4 = system: MOLT-4
MCF7 = system: MCF7

O=C(NC(Nc1ccc(F)c(Cl)c1)(C(F)(F)F)C(F)(F)F)OCc1ccccc1
GI50 (HT-29): 34 µM (inactive) | GI50 (SF-268): 62.7 µM (inactive) | GI50 (KM12): 36.3 µM (inactive) | GI50 (MDA-MB-435): 32.1 µM (inactive) | GI50 (SK-MEL-28): > 100 µM (inactive) | GI50 (A549): 43 µM (inactive) | GI50 (A498): 37.2 µM (inactive) | GI50 (UACC-257): > 100 µM (inactive) | GI50 (SR): 11 µM (inactive) | GI50 (K562): 10.8 µM (inactive) | GI50 (HOP-92): 23.2 µM (inactive) | GI50 (OVCAR-5): > 100 µM (inactive) | GI50 (Hs-578T): 51.2 µM (inactive) | GI50 (MDA-MB-231): 11.7 µM (inactive) | GI50 (HL-60): 11.5 µM (inactive) | GI50 (HCT-15): 22.4 µM | GI50 (OVCAR-3): 17.3 µM (inactive) | GI50 (EKVX): 26.4 µM (inactive) | GI50 (MOLT-4): 26.4 µM (inactive) | GI50 (MCF7): 19.4 µM (inactive)
